The results in this text go back to patent US10851093B2, “Tyrosine kinase inhibitors” (Rigel Pharmaceuticals, Inc., priority 2018, dated 2020).

One assay deals with T1, MerTK (Homo sapiens, UniProt Q12866).
T1 construct: Seed HUVECs (10K cells/well) in EBM-2 complete media; host or cells: HUVEC
T1 sequence (Q12866 21-999): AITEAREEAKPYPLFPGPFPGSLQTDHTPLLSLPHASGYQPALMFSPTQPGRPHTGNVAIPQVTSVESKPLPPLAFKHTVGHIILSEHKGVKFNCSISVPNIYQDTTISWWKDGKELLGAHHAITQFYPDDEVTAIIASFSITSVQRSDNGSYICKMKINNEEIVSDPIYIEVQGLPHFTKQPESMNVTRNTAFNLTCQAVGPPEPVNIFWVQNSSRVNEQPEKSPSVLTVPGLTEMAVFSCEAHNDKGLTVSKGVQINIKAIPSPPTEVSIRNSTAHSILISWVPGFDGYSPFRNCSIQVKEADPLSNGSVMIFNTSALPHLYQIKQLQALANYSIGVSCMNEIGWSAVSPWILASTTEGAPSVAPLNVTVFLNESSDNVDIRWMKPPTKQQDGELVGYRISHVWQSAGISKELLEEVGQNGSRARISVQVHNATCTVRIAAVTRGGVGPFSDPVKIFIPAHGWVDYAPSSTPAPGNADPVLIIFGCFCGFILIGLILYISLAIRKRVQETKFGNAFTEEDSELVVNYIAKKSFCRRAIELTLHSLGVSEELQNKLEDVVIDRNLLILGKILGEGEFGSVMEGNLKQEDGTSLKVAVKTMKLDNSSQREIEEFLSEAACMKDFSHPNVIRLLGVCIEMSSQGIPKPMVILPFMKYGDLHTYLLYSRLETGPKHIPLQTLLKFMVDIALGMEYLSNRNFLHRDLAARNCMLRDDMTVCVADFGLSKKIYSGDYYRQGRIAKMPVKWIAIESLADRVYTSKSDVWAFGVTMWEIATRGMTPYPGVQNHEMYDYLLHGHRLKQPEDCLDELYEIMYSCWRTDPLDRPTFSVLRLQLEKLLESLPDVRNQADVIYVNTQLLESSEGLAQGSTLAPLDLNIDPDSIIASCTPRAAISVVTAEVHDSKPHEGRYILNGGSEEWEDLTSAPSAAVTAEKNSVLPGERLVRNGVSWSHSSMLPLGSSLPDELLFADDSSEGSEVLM
As to the kind of experiment: Phospho-AKT HTRF, HUVEC, Mer-XL, 8 pt (pAKT HTRF-HUVEC assay, anti-human MerTK-XL stimulation). The class given is cell-based. To be noted: HUVEC cells, pAkt(Ser473) HTRF, anti-human MerTK-XL stimulation 1 ug/mL 10 minutes. Here is the method:
(§1) Example 13: PAKT HTRF-HUVEC Assay
(§2) Seed HUVECs (10K cells/well) in EBM-2 complete media (EBM-2 basal medium plus EGM-2 BulletKit supplements) overnight at 37° C., 5% CO2 in Costar 96-well white clear-bottom plates. Remove culture media and starve cells for 3-4 hours in 50 μL/well EBM-2 basal medium. Perform serial dilution of compounds in DMSO from 2.5 mM in 4-fold dilutions, and then dilute 1:125 in EBM-2 basal media. Mix 50 μL/well 2× compounds with 50 μL/well HUVECs in duplicate in Costar 96-well white clear-bottom plates. Incubate plates for 1 hour at 37° C., 5% CO2. Cross-link anti-human MerTK antibody to Biotin-SP-conjugated anti-mouse IgG antibody (1:1) to give final concentrations of 5 μg/mL of anti-human MerTK-XL. Stimulate HUVECs with 25 μL/well 5× anti-human MerTK-XL to give final concentrations of 1 ug/mL for 10 minutes at 37° C., 5% CO2. Completely remove media and lyse HUVECs with 40 uL:WELL per well of Cisbio HTRF 1× lysis buffer. Performed pAkt(Ser473) HTRF assay in ProxiPlate-384 Plus, white 384-shallow well microplate according to the vendor protocol and read plates with a SpectralMax Paradigm plate reader. Enter the HTRF values into Athena (Rigel) for curve fitting, EC50 calculation, and database storage.
(In TR-FRET formats the signal depends on donor and acceptor labels being close together.)

In another assay the target is T2, Axl (Homo sapiens, UniProt P30530).
T2 construct: Seed HUVECs (10K cells/well) in EBM-2 complete media; host or cells: HUVEC
T2 sequence (P30530 26-894): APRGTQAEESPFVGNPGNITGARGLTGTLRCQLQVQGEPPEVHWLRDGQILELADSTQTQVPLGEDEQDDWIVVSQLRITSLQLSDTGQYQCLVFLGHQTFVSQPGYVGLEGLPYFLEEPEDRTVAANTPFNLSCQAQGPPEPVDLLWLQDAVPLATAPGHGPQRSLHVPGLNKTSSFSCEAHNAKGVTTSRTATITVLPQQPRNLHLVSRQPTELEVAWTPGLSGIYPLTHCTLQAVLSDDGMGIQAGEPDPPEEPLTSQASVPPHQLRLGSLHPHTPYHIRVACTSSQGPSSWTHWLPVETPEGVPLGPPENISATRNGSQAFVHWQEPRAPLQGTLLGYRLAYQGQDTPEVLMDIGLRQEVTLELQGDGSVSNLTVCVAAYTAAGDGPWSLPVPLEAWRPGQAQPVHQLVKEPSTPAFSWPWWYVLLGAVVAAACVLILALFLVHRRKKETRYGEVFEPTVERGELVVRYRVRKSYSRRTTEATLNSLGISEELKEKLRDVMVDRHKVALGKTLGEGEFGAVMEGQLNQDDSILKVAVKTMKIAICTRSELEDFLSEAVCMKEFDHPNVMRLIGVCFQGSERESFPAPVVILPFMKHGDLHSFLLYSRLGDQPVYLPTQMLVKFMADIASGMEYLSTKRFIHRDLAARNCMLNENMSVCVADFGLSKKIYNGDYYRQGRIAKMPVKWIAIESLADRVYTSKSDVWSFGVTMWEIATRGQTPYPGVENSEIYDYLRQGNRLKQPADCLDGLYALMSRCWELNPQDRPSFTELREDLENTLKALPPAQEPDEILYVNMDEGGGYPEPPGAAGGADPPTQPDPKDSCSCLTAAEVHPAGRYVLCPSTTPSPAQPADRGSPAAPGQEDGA
As to the kind of experiment: Phospho-AKT HTRF, HUVEC, Axl ABX-L, 8 pt. The class given is cell-based. The conditions noted are these: HUVEC cells, pAkt(Ser473) HTRF, Axl ABX-L stimulation. Here is the method:
[The source words this procedure for another target and reports this target under the same test.] as §1, §2

As a reminder, the EC50 is the concentration giving half of the maximal effect. In the case of `COc1cc2c(Oc3ccc(NC(=O)c4csc(N5CCC(O)CC5)n4)nc3)ccnc2cc1OCCCN1CCOCC1` [Compound 45, 2-(4-hydroxypiperidin-1-yl)-N-(5-((6-methoxy-7-(3-morpholinopropoxy)quinolin-4-yl)oxy)pyridin-2-yl)thiazole-4-carboxamide, hydrochloric acid], the EC50 at MerTK came to 459 nM; at Axl, 649 nM.
For `COc1cc2c(Oc3ccc(NC(=O)c4cc(C)ccn4)nc3)ccnc2cc1OCCCN1CCOCC1` [Compound 32, N-(5-((6-Methoxy-7-(3-morpholinopropoxy)quinolin-4-yl)oxy)pyridin-2-yl)-4-methylpicolinamide] the same measures were 162 nM and 462 nM.
For `COc1cc2c(Oc3ccc(NC(=O)c4nc(-c5ccccc5)c5ccccc5n4)nc3)ccnc2cc1OCCCN1CCOCC1` [Compound 5, N-(5-((6-Methoxy-7-(3-morpholinopropoxy)quinolin-4-yl)oxy)pyridin-2-yl)-4-phenylquinazoline-2-carboxamide] the same measures were 2.2 nM and 1.4 nM.
As for `COc1cc2c(Oc3ccc(NC(=O)c4cc(N5CC6(COC6)C5)ccn4)nc3)ccnc2cc1OCCCN1CCOCC1` [Compound 19, N-(5-((6-methoxy-7-(3-morpholinopropoxy)quinolin-4-yl)oxy)pyridin-2-yl)-4-(2-oxa-6-azaspiro[3.3]heptan-6-yl)picolinamide], the EC50 is 505 nM at MerTK and 568 nM on Axl.
The corresponding values for `COc1cc2c(Oc3ccc(NC(=O)c4cccc(N5CCCCC5)n4)nc3)ccnc2cc1OCCCN1CCOCC1` [Compound 23, N-(5-((6-methoxy-7-(3-morpholinopropoxy)quinolin-4-yl)oxy)pyridin-2-yl)-6-(piperidin-1-yl)picolinamide] are 13 nM and 66.8 nM.
For `COc1cc2c(Oc3ccc(NC(=O)c4cc(N5CCCCC5)ccn4)nc3)ccnc2cc1OCCCN1CCOCC1` [Compound 13, N-(5-((6-methoxy-7-(3-morpholinopropoxy)quinolin-4-yl)oxy)pyridin-2-yl)-4-(piperidin-1-yl)picolinamide] the same measures were 20.2 nM and 53.8 nM.
`COc1cc2c(Oc3ccc(NC(=O)c4nc5ccccc5c(=O)[nH]4)nc3)ccnc2cc1OCCCN1CCOCC1` [Compound 9, N-(5-((6-Methoxy-7-(3-morpholinopropoxy)quinolin-4-yl)oxy)pyridin-2-yl)-4-oxo-3,4-dihydroquinazoline-2-carboxamide, trifluoroacetic acid]: the figures for the EC50 on MerTK and on Axl were 42.7 nM and 71.7 nM, respectively.
Consider `COc1cc2c(Oc3ccc(NC(=O)c4ncc(Br)s4)nc3)ccnc2cc1OCCCN1CCOCC1` [Compound 44, 5-bromo-N-(5-((6-methoxy-7-(3-morpholinopropoxy)quinolin-4-yl)oxy)pyridin-2-yl)thiazole-2-carboxamide], for which the values for the EC50 on MerTK and at Axl were 79.9 nM and 102 nM, respectively.
The corresponding values for `COc1cc2ncnc(Oc3ccc(NC(=O)c4nc(-c5ccccc5)c5c(n4)C4CCN5CC4)nc3)c2cc1OC` [Compound 49, N-(5-((6,7-dimethoxyquinazolin-4-yl)oxy)pyridin-2-yl)-4-phenyl-7,8-dihydro-6H-5,8-ethanopyrido[3,2-d]pyrimidine-2-carboxamide] are 15.4 nM and 26.8 nM.
For `COc1ccnc(C(=O)Nc2ccc(Oc3ccnc4cc(OCCCN5CCOCC5)c(OC)cc34)cn2)c1` [Compound 33, 4-Methoxy-N-(5-((6-methoxy-7-(3-morpholinopropoxy)quinolin-4-yl)oxy)pyridin-2-yl)picolinamide] the same measures were 161 nM and 188 nM.
Consider `CCOC1CCN(c2cccc(C(=O)Nc3ccc(Oc4ccnc5cc(OCCCN6CCOCC6)c(OC)cc45)cn3)n2)CC1` [Compound 29, 6-(4-ethoxypiperidin-1-yl)-N-(5-((6-methoxy-7-(3-morpholinopropoxy)quinolin-4-yl)oxy)pyridin-2-yl)picolinamide], for which the 50% effective concentration (EC50) at MerTK came out at 690 nM; on Axl, 651 nM.
Turning to `COc1cc2c(Oc3ccc(NC(=O)c4cc(N5CCC(C)(C)CC5)ccn4)nc3)ccnc2cc1OCCCN1CCOCC1` [Compound 22, 4-(4,4-dimethylpiperidin-1-yl)-N-(5-((6-methoxy-7-(3-morpholinopropoxy)quinolin-4-yl)oxy)pyridin-2-yl)picolinamide], the EC50 is 96 nM at MerTK and 187 nM at Axl.
Regarding `COc1cc2c(Oc3ccc(NC(=O)c4cc(N5CCC(O)CC5)ccn4)nc3)ccnc2cc1OCCCN1CCOCC1` [Compound 8, 4-(4-Hydroxypiperidin-1-yl)-N-(5-((6-methoxy-7-(3-morpholino-propoxy)quinolin-4-yl)oxy)pyridin-2-yl)picolinamide, trifluoroacetic acid], the 50% effective concentration (EC50) was 90.9 nM on MerTK and 228 nM on Axl.
In the case of `COc1cc2c(Oc3ccc(NC(=O)c4nc(-c5ccccc5)c5c(n4)C4CCN5CC4)cc3F)ccnc2cc1OCCCN1CCOCC1` [Compound 36, N-(3-fluoro-4-((6-methoxy-7-(3-morpholinopropoxy)quinolin-4-yl)oxy)phenyl)-4-phenyl-7,8-dihydro-6H-5,8-ethanopyrido[3,2-d]pyrimidine-2-carboxamide], the EC50 was found to be 9.5 nM at MerTK and 5.8 nM at Axl.
For the compound `COc1cc2c(Oc3ccc(NC(=O)c4cc(-c5ccccc5)c5c(n4)C4CCN5CC4)nc3)ccnc2cc1OCCCN1CCOCC1` [Compound 2, N-(5-((6-Methoxy-7-(3-morpholinopropoxy)quinolin-4-yl)oxy)pyridin-2-yl)-8-phenyl-3,4-dihydro-2H-1,4-ethano-1,5-naphthyridine-6-carboxamide], the EC50 turned out to be 47 nM on MerTK and 40.8 nM on Axl.
For `COc1cc2c(Oc3ccc(NC(=O)c4cccc(N5CC(F)(F)C5)n4)nc3)ccnc2cc1OCCCN1CCOCC1` [Compound 30, 6-(3,3-difluoroazetidin-1-yl)-N-(5-((6-methoxy-7-(3-morpholinopropoxy)quinolin-4-yl)oxy)pyridin-2-yl)picolinamide] the same measures were 9.4 nM and 110 nM.
